Assay results taken from publication PMC9920077, “Antimicrobial Natural Products from Plant Pathogenic Fungi” (Molecules, 2023).
In brackets after ≈: the same amount, converted by molar mass. Like-named read-outs stand apart in the source and are kept apart here.

What was measured:
[1] = system: HEK293 human embryonic kidney cells
Description: (§2) All compounds were also evaluated for their cytotoxicity against human embryonic kidney cells (HEK-293) and any haemolytic activity against human red blood cells.

A. baumannii ATCC 19606 = test: MIC against A. baumannii ATCC 19606, CO-ADD; assay type: cell-based; conditions: Acinetobacter baumannii
Excerpt: (§1) Antimicrobial evaluation of the pure compounds against A. baumannii ATCC 19606, Candida albicans ATCC 90028, Cryptococcus neoformans ATCC 208821, E. coli ATCC 25922, K. pneumoniae ATCC 700603, P. aeruginosa ATCC 27853, and S. aureus ATCC 43300 (MRSA) was undertaken at the Community for Open Antimicrobial Drug Discovery at The University of Queensland (St. Lucia, Queensland, Australia) according to standard protocols as previously described.

E. coli ATCC 25922 = test: MIC against E. coli ATCC 25922, CO-ADD; assay type: cell-based; conditions: Escherichia coli
Excerpt: as §1

[2] = system: C. neoformans ATCC 208821; test: MIC against C. neoformans ATCC 208821, CO-ADD; assay type: cell-based; conditions: Cryptococcus neoformans
Excerpt: as §1

[3] = system: S. aureus ATCC 43300 (MRSA); test: MIC against S. aureus ATCC 43300 (MRSA), CO-ADD; assay type: cell-based, Staphylococcus aureus; conditions: for MIC: Staphylococcus aureus, read-out: MIC S. a
Excerpt: as §1

[4] = system: K. pneumoniae ATCC 700603; test: MIC against K. pneumoniae ATCC 700603, CO-ADD; assay type: cell-based; conditions: Klebsiella pneumoniae
Excerpt: as §1

P. aeruginosa ATCC 27853 = test: MIC against P. aeruginosa ATCC 27853, CO-ADD; assay type: cell-based; conditions: Pseudomonas aeruginosa
Excerpt: as §1

C. albicans ATCC 90028 = test: MIC against C. albicans ATCC 90028, CO-ADD; assay type: cell-based, Candida albicans; conditions: for MIC: Candida albicans
Excerpt: as §1

Elymus repens = system: Elymus repens; parameters: method as in PMID 25312126; conditions: cited from earlier work
Mycotypha microspora = system: Mycotypha microspora; parameters: method as in PMID 25312126; conditions: cited from earlier work
[5] = system: Mycobacteria tuberculosis; parameters: method as in PMID 19333565, doi:10.1590/S0100-40422007000700012; conditions: cited from earlier work
S. cerevisiae = system: S. cerevisiae; parameters: method as in PMID 19333565, doi:10.1590/S0100-40422007000700012; conditions: cited from earlier work
E. coli [6] = system: E. coli; parameters: method as in PMID 4629229; conditions: disk diffusion assays; cited from earlier work
B. subtilis = system: B. subtilis; parameters: method as in PMID 19333565, doi:10.1590/S0100-40422007000700012; conditions: cited from earlier work
S. aureus = system: S. aureus; parameters: method as in PMID 19333565, doi:10.1590/S0100-40422007000700012; conditions: cited from earlier work
Sclerotinia sclerotiorum = system: Sclerotinia sclerotiorum; parameters: method as in PMID 19333565, doi:10.1590/S0100-40422007000700012; conditions: cited from earlier work
human red blood cells [7] = system: human red blood cells
[8] = Cytotoxicity on HEK293 human embryonic kidney cells
Description: as §2

human red blood cells [9] = test: Haemolytic activity on human red blood cells; conditions: concentration of compound at 10% haemolytic activity on human red blood cells; mean of two experiments
M. marinum BSG101 = test: Antimycobacterial bioluminescence assay of pure compounds, M. marinum; conditions: Mycobacterium marinum, BSG101, 72 h
Description: Antimicrobial evaluation against M. abscessus and M. marinum was undertaken using in-house assays with the bioluminescent derivatives M. abscessus BSG301 [63] and M. marinum BSG101 [64]. […] Specifically, mycobacterial cultures were grown with shaking at 200 rpm in Middlebrook 7H9 broth (Fort Richard, Auckland, New Zealand) supplemented with 10% Middlebrook ADC enrichment media (Fort Richard, Auckland, New Zealand), 0.4% glycerol (Sigma-Aldrich, St. Louis, MO, USA), and 0.05% tyloxapol (Sigma-Aldrich, St. Louis, MO, USA). M. abscessus was grown at 37 °C and M. marinum at 28 °C. Cultures were grown until they reached the stationary phase (approximately 3–5 days for M. abscessus BSG301 and 7–10 days for M. marinum BSG101) and then diluted in MHB supplemented with 10% Middlebrook ADC enrichment media and 0.05% tyloxapol to give an optical density at 600 nm (OD600) of 0.001, which is the equivalent of ~10^6 bacteria per mL. Pure compounds were dissolved in DMSO and added to the wells of a black 96-well plate (Nunc, Thermo Scientific, Waltham, MA, USA) at doubling dilutions with a maximum concentration of 128 mg/mL. […] Bacterial luminescence was measured at regular intervals over 72 h using a Victor X-3 luminescence plate reader with an integration time of 1 s. […]

E. coli [10] = system: E. coli; parameters: method as in doi:10.1002/ejoc.200800404; conditions: agar diffusion assay; cited from earlier work
Bacillus megaterium = system: Bacillus megaterium; parameters: method as in doi:10.1002/ejoc.200800404; conditions: agar diffusion assay; cited from earlier work
Microbotryum violaceum = system: Microbotryum violaceum; parameters: method as in doi:10.1002/ejoc.200800404; conditions: agar diffusion assay; cited from earlier work
Microsporum gypseum = system: Microsporum gypseum; parameters: method as in PMID 4629229, PMID 9797310, PMID 19801865; conditions: cited from earlier work
Aspergillus fumigatus = system: Aspergillus fumigatus; parameters: method as in PMID 4629229, PMID 9797310, PMID 19801865; conditions: cited from earlier work
[11] = ATCC19606, A. baumanii ATCC 19606, mean of two experiments, read-out: MIC A. b
[12] = ATCC25922, E. coli ATCC 25922, mean of two experiments, read-out: MIC E. c
[13] = ATCC208821, C. neoformans ATCC 208821, mean of two experiments, read-out: MIC C. n
[14] = S. aureus ATCC 43300 (MRSA), mean of two experiments
[15] = ATCC700603, K. pneumoniae ATCC 700603, mean of two experiments, read-out: MIC K. p
[16] = ATCC27853, P. aeruginosa ATCC 27853, mean of two experiments, read-out: MIC P. a
[17] = ATCC90028, C. albicans ATCC 90028, mean of two experiments, read-out: MIC C. a

CC(O)CCC(O)/C=C/C(=O)O (stereo not shown) [compound 1, (E)-4,7-dihydroxyoct-2-enoic acid]
cytotoxicity [1]: no cytotoxic or haemolytic activity | MIC (A. baumannii ATCC 19606; [11]): > 184 µM | MIC (E. coli ATCC 25922; [12]): > 184 µM | MIC [2, 13]: > 184 µM | MIC [3, 14]: > 184 µM | MIC [4, 15]: > 184 µM | MIC (P. aeruginosa ATCC 27853; [16]): > 184 µM | MIC (C. albicans ATCC 90028; [17]): > 184 µM

C/C1=C\C[C@]2(C)C(=O)C(O)=C([C@H](C)CO)[C@H]2C/C=C(\C)[C@@H](O)CC/C(C)=C/CC1 [compound 3, terpestacin]
MIC (A. baumannii ATCC 19606; [11]): > 79 µM | MIC (E. coli ATCC 25922; [12]): > 79 µM | MIC [2, 13]: > 79 µM | MIC [3, 14]: > 79 µM | MIC [4, 15]: > 79 µM | MIC (P. aeruginosa ATCC 27853; [16]): > 79 µM | MIC (C. albicans ATCC 90028; [17]): > 79 µM

C/C=C/c1cc2c(c(=O)o1)C(=O)[C@@H](O)[C@H](C)O2 [compound 2, radicinin]
MIC (A. baumannii ATCC 19606; ATCC19606, read-out: MIC A. b): > 135 µM | MIC (E. coli ATCC 25922; ATCC25922, read-out: MIC E. c): > 135 µM | MIC ([2]; ATCC208821, read-out: MIC C. n): > 135 µM | antifungal activity against Elymus repens (Elymus repens): moderate antifungal activity | MIC [3]: > 135 µM | antifungal activity against Mycotypha microspora (Mycotypha microspora): moderate antifungal activity | MIC ([4]; ATCC700603, read-out: MIC K. p): > 135 µM | MIC (P. aeruginosa ATCC 27853; ATCC27853, read-out: MIC P. a): > 135 µM | MIC (C. albicans ATCC 90028; ATCC90028, read-out: MIC C. a): > 135 µM

CC1CCCCCC(=O)c2c(O)cc(O)cc2CC(=O)O1 (stereo not shown) [compound 5, curvularin]
MIC (A. baumannii ATCC 19606; [11]): > 109 µM | MIC (E. coli ATCC 25922; [12]): > 109 µM | antimicrobial activity against Mycobacteria tuberculosis [5]: inactive | MIC [2, 13]: > 109 µM | MIC [3, 14]: > 109 µM | antimicrobial activity against S. cerevisiae (S. cerevisiae): inactive | activity against E. coli (E. coli [6]): none of the compounds were active | MIC [4, 15]: > 109 µM | antimicrobial activity against B. subtilis (B. subtilis): inactive | antimicrobial activity against S. aureus (S. aureus): inactive | MIC (P. aeruginosa ATCC 27853; [16]): > 109 µM | antimicrobial activity against Sclerotinia sclerotiorum (Sclerotinia sclerotiorum): inactive | MIC (C. albicans ATCC 90028; [17]): > 109 µM

COc1c(CC(C)O)c2c3c(CC(C)O)c(OC)c(=O)c4c(O)cc5c(c6c(cc(O)c(c1=O)c62)OCO5)c43 (stereo not shown) [compound 7, cercosporin]
MIC (A. baumannii ATCC 19606; [11]): > 60 µM | MIC (E. coli ATCC 25922; [12]): > 60 µM | MIC [2, 13]: > 60 µM | activity against MRSA ([3]; MRSA): potent activity | MIC [3, 14]: ≤ 0.47 µM | haemolytic activity (human red blood cells [7]): not haemolytic | MIC [4, 15]: > 60 µM | MIC (P. aeruginosa ATCC 27853; [16]): > 60 µM | CC50 [8]: 25300 nM | HC10 (human red blood cells [9]): >60 µM | MIC (C. albicans ATCC 90028; [17]): > 60 µM

C[C@H]1CCC/C=C/C(=O)c2c(O)cc(O)cc2CC(=O)O1 [compound 6, dehydro-curvularin]
MIC (A. baumannii ATCC 19606; ATCC19606, read-out: MIC A. b): > 110 µM | MIC (E. coli ATCC 25922; ATCC25922, read-out: MIC E. c): > 110 µM | MIC against M. tuberculosis [5]: 40 µM (≈ 11.6 µg/mL) | antimicrobial activity against Mycobacteria tuberculosis [5]: active | MIC ([2]; ATCC208821, read-out: MIC C. n): > 110 µM | MIC [3]: > 110 µM | antimicrobial activity against S. cerevisiae (S. cerevisiae): inactive | MIC ([4]; ATCC700603, read-out: MIC K. p): > 110 µM | antimicrobial activity against B. subtilis (B. subtilis): inactive | MIC (M. marinum BSG101): 32 µg/mL (≈ 110 µM) | antimicrobial activity against S. aureus (S. aureus): inactive | MIC (P. aeruginosa ATCC 27853; ATCC27853, read-out: MIC P. a): > 110 µM | antimicrobial activity against Sclerotinia sclerotiorum (Sclerotinia sclerotiorum): inactive | CC50 [8]: 1270 nM | HC10 (human red blood cells [9]): >110 µM | MIC (C. albicans ATCC 90028; ATCC90028, read-out: MIC C. a): > 110 µM

OC(Cn1cncn1)(Cn1cncn1)c1ccc(F)cc1F [fluconazole, reference compound]
MIC [2, 13]: 26 µM (≈ 7.96 µg/mL) | MIC (C. albicans ATCC 90028; [17]): 0.4 µM (≈ 0.123 µg/mL)

C[C@@H]1CCC(=O)CCC(=O)O[C@H](C)CC[C@H](O)/C=C/C(=O)O1 [compound 4, tetrahydropyrenophorin]
MIC (A. baumannii ATCC 19606; [11]): > 102 µM | MIC (E. coli ATCC 25922; [12]): > 102 µM | antibacterial activity against E. coli (E. coli [10]): moderate antibacterial activity | MIC [2, 13]: > 102 µM | MIC [3, 14]: > 102 µM | MIC [4, 15]: > 102 µM | MIC (P. aeruginosa ATCC 27853; [16]): > 102 µM | antibacterial activity against Bacillus megaterium (Bacillus megaterium): moderate antibacterial activity | MIC (C. albicans ATCC 90028; [17]): > 102 µM | antifungal activity against Microbotryum violaceum (Microbotryum violaceum): antifungal activity

CC/C(=C(\c1ccccc1)c1ccc(OCCN(C)C)cc1)c1ccccc1 [tamoxifen, reference compound]
IC50 ([8]; HEK-293 human embryonic kidney cells): 24 µM

CN[C@H](CC(C)C)C(=O)N[C@H]1C(=O)N[C@@H](CC(N)=O)C(=O)N[C@H]2C(=O)N[C@H]3C(=O)N[C@H](C(=O)N[C@H](C(=O)O)c4cc(O)cc(O)c4-c4cc3ccc4O)[C@H](O)c3ccc(c(Cl)c3)Oc3cc2cc(c3O[C@@H]2O[C@H](CO)[C@@H](O)[C@H](O)[C@H]2O[C@H]2C[C@](C)(N)[C@H](O)[C@H](C)O2)Oc2ccc(cc2Cl)[C@H]1O [vancomycin, reference compound]
MIC [3]: 0.7 µM (≈ 1.01 µg/mL)

C[C@H]1CCC/C=C/[C@@H]2C[C@H](O)C[C@H]2[C@H](O)/C=C/C(=O)O1 [compound 8, brefeldin A]
MIC (A. baumannii ATCC 19606; [11]): > 114 µM | activity against Microsporum gypseum (Microsporum gypseum): activity | MIC (E. coli ATCC 25922; [12]): > 114 µM | MIC [2, 13]: > 114 µM | MIC [3, 14]: > 114 µM | activity against E. coli (E. coli [6]): none of the compounds were active | MIC [4, 15]: > 114 µM | MIC (P. aeruginosa ATCC 27853; [16]): > 114 µM | CC50 [8]: 890 nM | HC10 (human red blood cells [9]): >114 µM | antifungal activity against C. albicans (C. albicans ATCC 90028; C. albicans): moderate antifungal activity | MIC (C. albicans ATCC 90028; [17]): 57 µM (≈ 16 µg/mL) | activity against Aspergillus fumigatus (Aspergillus fumigatus): activity
